Literature values, collected in patent US20180177744A1, “METHOD OF TREATING PAIN AND […] A HYBRID MIXTURE OF S-KETAMINE AND R-KETAMINE” (priority 2016, published 2018).
Where two headings read alike, the source gives them in different places.

Tests used:
[1] = for anaesthetic potency relative to arketamine (R-isomer): clinically, versus arketamine
[2] = tested on: phencyclidine binding sites on the NMDA receptors; conditions: versus arketamine
[3] = tested on: dopamine transporters; conditions: versus arketamine
[4] = tested on: sigma receptors
[5] = in vivo
[6] = not given; remark: listed apart in the source
[7] = liquid formulation at 30 mg to 50 mg, intranasal (IN) route
[8] = mice; versus esketamine

Chain of dopamine transporters (Q01959 whole entry): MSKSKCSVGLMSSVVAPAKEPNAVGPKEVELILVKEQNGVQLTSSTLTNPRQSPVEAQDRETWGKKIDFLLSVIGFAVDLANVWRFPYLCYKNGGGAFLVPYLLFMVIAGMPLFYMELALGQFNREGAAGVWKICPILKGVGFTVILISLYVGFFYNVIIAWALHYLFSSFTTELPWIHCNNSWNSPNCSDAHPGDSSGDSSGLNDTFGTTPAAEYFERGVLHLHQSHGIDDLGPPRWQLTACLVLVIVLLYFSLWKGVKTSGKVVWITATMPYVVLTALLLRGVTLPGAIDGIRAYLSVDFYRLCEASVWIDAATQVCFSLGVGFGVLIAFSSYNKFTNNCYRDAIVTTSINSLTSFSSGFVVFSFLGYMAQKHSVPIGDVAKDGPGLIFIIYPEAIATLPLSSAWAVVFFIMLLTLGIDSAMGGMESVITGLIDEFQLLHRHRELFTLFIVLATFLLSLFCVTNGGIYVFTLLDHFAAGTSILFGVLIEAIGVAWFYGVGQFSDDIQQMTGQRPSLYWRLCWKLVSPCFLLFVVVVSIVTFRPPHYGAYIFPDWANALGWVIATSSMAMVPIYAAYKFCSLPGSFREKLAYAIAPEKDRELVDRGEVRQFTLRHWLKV

SMILES | anaesthetic potency relative to arketamine (R-isomer) [1] | anaesthetic potency relative to arketamine (R-isomer) ([1]; listed as S(+)ketamine) | anesthetic potency relative to racemic ketamine ([1]; versus racemic ketamine) | affinity for the PCP binding site of the NMDA receptor relative to arketamine ([2]; listed as Esketamine) | affinity for the PCP binding site of the NMDA receptor relative to arketamine ([2]; listed as S(+)ketamine) | inhibition of dopamine transporters relative to arketamine [3] | binding to sigma receptors [4] | glucose metabolism in the brain [5] | elimination from the human body | recovery of cerebral functions ([6]; after anaesthesia, study persons) | ability to stop acute and/or breakthrough pain [7] | rapid antidepressant effect [8] | psychotomimetic effects ([6]; in vivo)
CN[C@]1(c2ccccc2Cl)CCCCC1=O [esketamine, S(+)-ketamine] | 3-4 times | three to four times | two times | 3-4 times | three to four times greater | eight times more | does not bind significantly | increases glucose metabolism in the frontal cortex | more quickly than arketamine (R(−)-ketamine) or racemic ketamine | more rapid recovery of cerebral functions | – | – | –
CNC1(c2ccccc2Cl)CCCCC1=O (racemic) [racemic ketamine, 2-(2-chlorphenyl)-2-(methylamino)-cyclohexanone] | – | – | – | – | – | – | – | – | – | – | stop acute and/or breakthrough pain | – | –
CN[C@@]1(c2ccccc2Cl)CCCCC1=O [arketamine, R(−)-ketamine] | – | – | – | – | – | – | – | decreases glucose metabolism in the brain | – | – | – | greater and lasted longer than that of esketamine | devoid of psychotomimetic effects
